Read-outs that look alike come from different tables or passages of the source.
Columns and labels:
GT1b (Con1) HCV replicon = assay: HCV replicon assay, wild type GT1b (Con1), luciferase based, stable format; format: cell-based, hepatitis C virus; conditions: Huh-7 cells
Procedure: (§1) The antiviral activity of the test compounds was assessed in the wild type GT1b (Con1), GT1a (H77), and GT1b/2a, GT1b/3a, GT1b/4a and GT1b/5a NS5B chimeric replicons, as well as the NS5B mutant replicons listed in Table 2a and 2b.
(§2) All the replicon assays were luciferase based in Huh-7 cells, either in stable format (GT1b and GT1a) or by transient transfection by electroporation (chimeric and mutant replicons). For a standard HCV replicon assay, stable or transiently transfected Huh-7 cells were seeded in 96-well plates (5,000 cells/well), cultured in DMEM containing 10% FBS, and incubated at 37° C., 5% CO2. On the following day, test compounds were diluted with assay media and added to the appropriate wells (final DMSO concentration in the cell culture medium was 0.5%). Assay reference positive control was included in each run to ensure assay performance. Cells were incubated at 37° C., 5% CO2 for 72 hours, at which time the cells were still sub-confluent. The antiviral activity was determined by measuring replicon reporter firefly luciferase activity using Bright Glo kit in accordance with the protocol provided by the supplier (Promega). The toxicity of the test compounds was assessed by CytoTox-1 cell proliferation assay (Promega). The half maximal effective concentration (EC50) and the half maximal toxic concentration (TC50) values were calculated using the GraphPad Prism software.

Huh-7 cells = assay: Toxicity by CytoTox-1 cell proliferation assay (TC50) and selectivity index; format: cell-based; conditions: TC50 by CytoTox-1 cell proliferation assay over replicon EC50, Huh-7 cells
Procedure: as §2

[1] = Nucleoside phosphoester stability in simulated gastric fluid; format: in vitro ADME; conditions: simulated gastric fluid pH 1.2, 2 μM, 37° C.
Procedure: Test compounds at 2 μM were incubated at 37° C. with simulated gastric fluid (SGF, 0.2% (w/v) sodium chloride in 0.7% (v/v) hydrochloric acid, deionized water, 0.3% pepsin (w/v), pH 1.2). Duplicate samples were used. Samples were removed at 0, 15, 30, 60, 120, 360 and 1440 min, immediately mixed with cold acetonitrile containing internal standard (IS), and stored at −80° C. before analysis. Omeprazole was used as a positive control. Samples were analyzed by LC/MS/MS method, and disappearance of test compound was assessed by comparison of peak area ratios of analyte/IS and reported as % test compound remaining at each time point.

[2] = Nucleoside phosphoester stability in simulated intestinal fluid; format: in vitro ADME
Procedure: Test compounds at 2 μM were incubated at 37° C. with simulated intestinal fluid (SIF), which contains 0.68% (w/v) monobasic potassium phosphate and 1% (w/v) pancreatin in ultra-pure water (pH 6.8). Duplicate samples were used. Samples were removed at 0, 15, 30, 60, 120, 360 and 1440 min, immediately mixed with cold acetonitrile containing an internal standard (IS), and stored at −80° C. before analysis. Chlorambucil was used as a positive control. Samples were analyzed by a LC/MS/MS method, and disappearance of test compound was assessed by comparison of peak area ratios of analyte/IS and reported as % test compound remaining at each time point.

[3] = system: GT1b/3a NS5B chimeric replicon; assay: HCV replicon assay, GT1b/3a NS5B chimeric replicon, transient transfection; format: cell-based, hepatitis C virus
Procedure: as §1
(§3) To generate HCV NS5B chimeric replicons, the GT1 b replicon was used as a backbone with the NS5B gene replaced with the NS5B gene of GT2a, GT3a, GT4a and GT5a derived from clinical isolates. These NS5B genes were cloned into the GT1b backbone and were confirmed by sequencing.
as §2

[4] = system: GT1b/2a NS5B chimeric replicon; assay: HCV replicon assay, GT1b/2a NS5B chimeric replicon, transient transfection; format: cell-based, hepatitis C virus; conditions: read-out: GT2a EC50; GT1b/2a NS5B chimeric replicon, Huh-7 cells, luciferase, 72 hours
Procedure: as §1, §3, §2

[5] = system: GT1b/4a NS5B chimeric replicon; assay: HCV replicon assay, GT1b/4a NS5B chimeric replicon, transient transfection; format: cell-based, hepatitis C virus; conditions: read-out: GT4a EC50; GT1b/4a NS5B chimeric replicon, Huh-7 cells, luciferase, 72 hours
Procedure: as §1, §3, §2

GT1a (H77) HCV replicon = assay: HCV replicon assay, wild type GT1a (H77), luciferase based, stable format; format: cell-based, hepatitis C virus; conditions: Huh-7 cells, 72 hours
Procedure: as §1, §2

[6] = system: GT1b/5a NS5B chimeric replicon; assay: HCV replicon assay, GT1b/5a NS5B chimeric replicon, transient transfection; format: cell-based, hepatitis C virus; conditions: read-out: GT5a EC50; GT1b/5a NS5B chimeric replicon, Huh-7 cells, luciferase, 72 hours
Procedure: as §1, §3, §2

[7] = Hepatitis C virus, GT1B, Huh-7, 72 h
[8] = read-out: GT3a EC50, GT1b/3a NS5B chimeric replicon, Huh-7 cells, luciferase, 72 hours
[9] = Hepatitis C virus, Huh-7, 72 h, read-out: GT3a EC50, GT1b/3a NS5B chimeric replicon, Huh-7 cells, luciferase, 72 hours

For `CC(C)(C)SSCCCCOP1(=O)OC[C@H]2O[C@@H](n3ccc(=O)[nH]c3=O)[C@](C)(F)[C@@H]2O1` (single isomer, unassigned) [Compound 6A], the EC50 (GT1b (Con1) HCV replicon; [7]) was 840 nM and the “Selectivity Index (TC50/EC50)” value (Huh-7 cells) was >12.

In the case of `CC(C)(C)SSCCCCOP1(=O)OC[C@H]2O[C@@H](n3ccc(=O)[nH]c3=O)[C@](C)(F)[C@@H]2O1` (single isomer, unassigned) [Compound 6B], the EC50 (GT1b (Con1) HCV replicon; 72 hours) is reported as 730 nM and the “Selectivity Index (TC50/EC50)” value (Huh-7 cells) is reported as >14.

For `CC(C)(C)SSc1ccccc1CCOP1(=O)OC[C@H]2O[C@@H](n3ccc(N)nc3=O)[C@](C)(F)[C@@H]2O1` (single isomer, unassigned) [Compound 9B], the “% Remaining” value ([1]; 0 min) was 100.00%, the “% Remaining” value ([1]; 15 min) was 95.72% and the “% Remaining” value ([1]; 30 min) was 98.51%. For the same compound, the “% Remaining” value ([1]; 60 min) was 100.39%, the “% Remaining” value ([1]; 120 min) was 92.48% and the “% Remaining” value ([1]; 360 min) was 65.99%. For the same compound, the “% Remaining” value ([1]; 1440 min) was 21.04%, the EC50 (GT1b (Con1) HCV replicon; 72 hours) was 13 nM and the “% Remaining” value ([2]; simulated gi fluid, 0 h, 2 μM, pH 6.8) was 100.00%. The “% Remaining” value ([2]; simulated gi fluid, 0.25 h, 2 μM, pH 6.8) was 98.51%, the “% Remaining” value ([2]; simulated gi fluid, 0.5 h, 2 μM, pH 6.8) was 91.63% and the “% Remaining” value ([2]; simulated gi fluid, 1 h, 2 μM, pH 6.8) was 99.30%. The “% Remaining” value ([2]; simulated gi fluid, 2 h, 2 μM, pH 6.8) was 97.42%, the “% Remaining” value ([2]; simulated gi fluid, 6 h, 2 μM, pH 6.8) was 72.51% and the “% Remaining” value ([2]; simulated gi fluid, 24 h, 2 μM, pH 6.8) was 33.69%. The EC50 [3, 8] was 29 nM and the “Selectivity Index (TC50/EC50)” value (Huh-7 cells) was >500.

In the case of `CC(C)(C)SSc1ccccc1CCOP1(=O)OC[C@H]2O[C@@H](n3ccc(N)nc3=O)[C@](C)(O)[C@@H]2O1` (single isomer, unassigned) [Compound 10A], the EC50 (GT1b (Con1) HCV replicon; [7]) is reported as 40 nM, the EC50 [3, 9] is reported as 41 nM and the “Selectivity Index (TC50/EC50)” value (Huh-7 cells) is reported as >500.

For `CC(C)(C)SSc1ccccc1CCOP1(=O)OC[C@H]2O[C@@H](n3ccc(N)nc3=O)[C@](C)(O)[C@@H]2O1` (single isomer, unassigned) [Compound 10B], the EC50 (GT1b (Con1) HCV replicon; 72 hours) was 21 nM, the EC50 [3, 8] was 21 nM and the “Selectivity Index (TC50/EC50)” value (Huh-7 cells) was >500.

In the case of `CC(C)(C)SSc1ccccc1CCOP1(=O)OC[C@H]2O[C@@H](n3cnc4c(N)nc(N)nc43)[C@](C)(O)[C@@H]2O1` (single isomer, unassigned) [Compound 16A], the EC50 (GT1b (Con1) HCV replicon; [7]) is reported as 20 nM, the EC50 [3, 9] is reported as 6 nM and the “Selectivity Index (TC50/EC50)” value (Huh-7 cells) is reported as >500.

For `CC(C)(C)SSc1ccccc1CCOP1(=O)OC[C@H]2O[C@@H](n3cnc4c(N)nc(N)nc43)[C@](C)(O)[C@@H]2O1` (single isomer, unassigned) [Compound 16B], the EC50 (GT1b (Con1) HCV replicon; 72 hours) was 40 nM, the EC50 [3, 8] was 5 nM and the “Selectivity Index (TC50/EC50)” value (Huh-7 cells) was >250.

`CC(C)(C)SSc1ccccc1CCOP1(=O)OC[C@H]2O[C@@H](n3ccc(N)nc3=O)[C@](C)(N)[C@@H]2O1` (single isomer, unassigned) [Compound 19A] gave an EC50 [4] of 151 nM, an EC50 [5] of 77 nM and an EC50 (GT1b (Con1) HCV replicon; 72 hours) of 177 nM. It also gave an EC50 [3, 8] of 228 nM, an EC50 (GT1a (H77) HCV replicon) of 169 nM and an EC50 [6] of 288 nM.

`CC(C)(C)SSc1ccccc1CCOP1(=O)OC[C@H]2O[C@@H](n3ccc(N)nc3=O)[C@](C)(N)[C@@H]2O1` (single isomer, unassigned) [Compound 19B] showed an EC50 [4] of 780 nM, an EC50 [5] of 344 nM and an EC50 (GT1b (Con1) HCV replicon; 72 hours) of 1030 nM. The EC50 [3, 8] was 1340 nM, the EC50 (GT1a (H77) HCV replicon) was 858 nM and the EC50 [6] was 1350 nM.

In the case of `O=C(O)CCCc1ccc(N(CCCl)CCCl)cc1` [Chlorambucil, reference compound], the “% Remaining” value ([2]; simulated intestinal fluid pH 6.8, 2 μM, 37° C., 0 min) is reported as 100.00%, the “% Remaining” value ([2]; simulated intestinal fluid pH 6.8, 2 μM, 37° C., 15 min) is reported as 81.31% and the “% Remaining” value ([2]; simulated intestinal fluid pH 6.8, 2 μM, 37° C., 30 min) is reported as 64.39%. For the same compound, the “% Remaining” value ([2]; simulated intestinal fluid pH 6.8, 2 μM, 37° C., 60 min) was 34.82%, the “% Remaining” value ([2]; simulated intestinal fluid pH 6.8, 2 μM, 37° C., 120 min) was 5.08% and the “% Remaining” value ([2]; simulated intestinal fluid pH 6.8, 2 μM, 37° C., 360 min) was 0.00%. The “% Remaining” value ([2]; simulated intestinal fluid pH 6.8, 2 μM, 37° C., 1440 min) was 0.00%.

For `CC(C)(C)SSc1ccccc1CCOP1(=O)OC[C@H]2O[C@@H](n3ccc(=O)[nH]c3=O)[C@](C)(F)[C@@H]2O1` (stereo partly shown) [Compound 7B], the EC50 (GT1b (Con1) HCV replicon; [7]) was 20 nM, the EC50 [3, 9] was 14 nM and the “Selectivity Index (TC50/EC50)” value (Huh-7 cells) was >500.

In the case of `CC(C)(C)SSc1ccccc1CCOP1(=O)OC[C@H]2O[C@@H](n3ccc(=O)[nH]c3=O)[C@](C)(O)[C@@H]2O1` (stereo partly shown) [Compound 8A], the EC50 (GT1b (Con1) HCV replicon; [7]) is reported as 10 nM, the EC50 [3, 9] is reported as 6 nM and the “Selectivity Index (TC50/EC50)” value (Huh-7 cells) is reported as >500.

In the case of `CC(C)(CCO)SSc1ccccc1CCOP1(=O)OC[C@H]2O[C@@H](n3ccc(=O)[nH]c3=O)[C@](C)(F)[C@@H]2O1` (stereo partly shown) [Compound 18A], the EC50 (GT1b (Con1) HCV replicon; [7]) is reported as 50 nM and the “Selectivity Index (TC50/EC50)” value (Huh-7 cells) is reported as >200.

With `COc1ccc2[nH]c([S+]([O-])Cc3ncc(C)c(OC)c3C)nc2c1` (stereo not shown) [Omeprazole, reference compound] the “% Remaining” value ([1]; 0 min) was 100.00%, the “% Remaining” value ([1]; 15 min) was 79.48% and the “% Remaining” value ([1]; 30 min) was 66.64%. The “% Remaining” value ([1]; 60 min) was 34.79%, the “% Remaining” value ([1]; 120 min) was 33.00% and the “% Remaining” value ([1]; 360 min) was 6.17%. The “% Remaining” value ([1]; 1440 min) was 1.24%.

From patent US20180346505A1, “MONONUCLEOTIDES HAVING A BIOREVERSIBLE DISULFIDE GROUP” (priority 2014, published 2018)
